Test results: patent US5085995A, “Method for producing saffron stigma-like tissue and method for producing useful components from saffron stigma-like tissue” (Somar Corporation, priority 1989, dated 1992)

System: saffron ovary
Assay: Tissue culture of saffron ovary in Linsmaier-Skoog medium with alanine; visual rating of stigma-like tissue (Example 4)
Type: cell-based
Settings: Ki 2 ppm, scale 0-10
Source text: The relative amount of the stigma-like tissue was visually determined and rated according to an 11-part divided scale, taking an amount corresponding to the amount of naturally-occurring three stigmata containing saffron pigment as 10, nil as 0, and equally dividing the interval therebetween.
The relative color density of the stigma-like tissue was visually determined, and rated according to an 11-part divided scale, taking a density corresponding to the density of a naturally-occurring stigma containing saffron pigment as 10 and colorlessness as 0, and equally dividing the interval therebetween.
Guaran powder was then added to the medium in a concentration of 0.2% by weight. The medium was sterilized at 120° C. for 20 minutes in an autoclave. The sterilized medium was aloquated into sterile plastic plates having a diameter of 55 mm, followed by cooling to solidify.
A bud of a saffron flower before opening was harvested, sterilized by soaking in a 0.5 vol% sodium hypochlorite aqueous solution for 10 minutes, and washed with water. The ovary portion of the bud was taken out and cut to pieces of about 8 mm. Each cut piece was seeded on each of the above-prepared solid media.
The ovary was subjected to static culture at 25° C. in a dark room. Production of a stigma-like tissue was recognized in the cultures in about 4 weeks at the soonest. In 7 weeks, the stigma-like tissue grew and assumed a red color, indicating considerable production of the saffron pigment.
After 7 weeks of culturing, the tissue cultures were visually observed and evaluated in the same manner as in Example 1.
A saffron ovary was cultured in the same manner as in Example 3, except for replacing the MS medium with a Linsmaier-Skoog medium to which Ki, NAA and alanine were added in the concentrations shown in Table 11.

What does the source list for C[C@H](N)C(=O)O (racemic) [Alanine, alanine]?
Relative Color Density of Stigma-Like Tissue Containing Saffron Pigment (alanine 0.01 g/l, NAA 0.1 ppm): 5; Relative Production of Stigma-Like Tissue Containing Saffron Pigment (alanine 0.01 g/l, NAA 0.1 ppm): 3; Relative Color Density of Stigma-Like Tissue Containing Saffron Pigment (alanine 0.01 g/l, NAA 1.0 ppm): 6; Relative Production of Stigma-Like Tissue Containing Saffron Pigment (alanine 0.01 g/l, NAA 1.0 ppm): 3; Relative Color Density of Stigma-Like Tissue Containing Saffron Pigment (alanine 0.1 g/l, NAA 0.1 ppm): 6; Relative Production of Stigma-Like Tissue Containing Saffron Pigment (alanine 0.1 g/l, NAA 0.1 ppm): 4; Relative Color Density of Stigma-Like Tissue Containing Saffron Pigment (alanine 0.1 g/l, NAA 1.0 ppm): 6; Relative Production of Stigma-Like Tissue Containing Saffron Pigment (alanine 0.1 g/l, NAA 1.0 ppm): 4; Relative Color Density of Stigma-Like Tissue Containing Saffron Pigment (alanine 1.0 g/l, NAA 0.1 ppm): 7; Relative Production of Stigma-Like Tissue Containing Saffron Pigment (alanine 1.0 g/l, NAA 0.1 ppm): 5; Relative Color Density of Stigma-Like Tissue Containing Saffron Pigment (alanine 1.0 g/l, NAA 1.0 ppm): 7; Relative Production of Stigma-Like Tissue Containing Saffron Pigment (alanine 1.0 g/l, NAA 1.0 ppm): 5; Relative Color Density of Stigma-Like Tissue Containing Saffron Pigment (alanine 5.0 g/l, NAA 0.1 ppm): 6; Relative Production of Stigma-Like Tissue Containing Saffron Pigment (alanine 5.0 g/l, NAA 0.1 ppm): 5; Relative Color Density of Stigma-Like Tissue Containing Saffron Pigment (alanine 5.0 g/l, NAA 1.0 ppm): 7; Relative Production of Stigma-Like Tissue Containing Saffron Pigment (alanine 5.0 g/l, NAA 1.0 ppm): 5
